Earlier results, collected in patent US20080234335A1, “Cyclohexene Compounds” (priority 2003, published 2008).

Experiments:
EP1 receptor [1] = molecular target: T1, EP1 receptor (Rattus norvegicus, UniProt P70597); set-up: host or cells: live rat (in vivo); conditions: rat model of chronic constriction injury
T1 sequence (P70597 1-405): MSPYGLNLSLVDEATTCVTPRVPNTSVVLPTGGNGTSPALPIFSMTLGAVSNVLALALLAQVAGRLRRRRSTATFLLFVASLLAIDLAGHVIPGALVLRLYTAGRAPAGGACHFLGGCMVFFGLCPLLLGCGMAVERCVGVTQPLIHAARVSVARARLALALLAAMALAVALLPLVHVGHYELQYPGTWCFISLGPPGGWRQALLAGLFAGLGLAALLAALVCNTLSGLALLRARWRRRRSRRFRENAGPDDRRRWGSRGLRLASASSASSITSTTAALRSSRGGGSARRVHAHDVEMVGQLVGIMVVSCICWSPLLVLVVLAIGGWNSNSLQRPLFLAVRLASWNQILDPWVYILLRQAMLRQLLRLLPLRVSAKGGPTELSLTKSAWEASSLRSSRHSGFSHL

EP1 receptor [2] = molecular target: T1, EP1 receptor; set-up: host or cells: live rodent (in vivo); conditions: rodent model of post-operative pain

What does the source list for `Cc1cc(Cl)ccc1S(=O)(=O)NC[C@H]1C2CCC(CC2)[C@@H]1/C=C\CCCC(=O)O` [ONO-8711]?
effect on hyperalgesia and allodynia (EP1 receptor [1]): reduces hyperalgesia and allodynia; effect on mechanical hyperalgesia (EP1 receptor [2]): inhibits mechanical hyperalgesia
